Data published in patent US20170051249A1, “MANIPULATION OF OVARIAN PRIMORDIAL FOLLICLES” (The Board of Trustees of the Leland Stanford junior …, priority 2009, published 2017).
pIC50: −log10 of the molar value. Blank lines part the entries; values can stand above or below the compound they belong to.

What was measured:
PTEN = PTEN (Homo sapiens, UniProt P60484); conditions: in vitro, known inhibitors; read-out: IC50 for inhibition of PTEN; cited from earlier work
[1] = tested on: Foxo3 nuclear export in primordial oocytes; experiment: Foxo3 nuclear export in primordial follicles of human ovarian cortical cubes; assay type: cell-based; conditions: 1 h treatment, 100 uM
Procedure: (§1) Informed consent from the patient and approval from the Human Subject Committee of Akita University were obtained. Ovarian cortex was isolated and cut into small cubes (˜1 mm^3). After treatment of cortical cubes for 1 h with bpV(pic), some samples were used for immunohistochemical staining for Foxo3. Some ovarian cubes were also cultured in MEM-a medium containing 10% human serum albumin (Mitsubishi Tanabe Pharma Corp, Osaka, Japan), 1% antibiotic/antimycotic solution (Invitrogen), and 0.3 IU/ml FSH. Pairs of cortical cubes were treated with bpV(pic) ([…]) or saline for 24 h before xeno-transplantation into each side of the kidney capsule of ovariectomized, immune-deficient SCID mice. An i.p. injection of antibiotic (4 μg/g body weight; gentamicin; Invitrogen) was given while animals were anesthetized by 2,2,2-tribromoethanol (0.4 mg/g body weight; avertin; Sigma). Three day after transplantation, animals were treated i.p. with FSH (1 IU/animal) every 48 h for 24 weeks. At 36 h before sample retrieval, hCG (20 IU/animal) was injected subcutaneously. Ovarian grafts were recovered for histological analyses and follicle counting.

[2] = tested on: dormant primordial follicles of neonatal ovaries; experiment: Transient in vitro exposure of neonatal mouse ovaries to PTEN inhibitor, kidney capsule transplantation into ovariectomized FSH-treated hosts, histology (Examples 2 and 3); assay type: in vivo
Procedure: Ovaries fixed for at least 24 h are dehydrated, embedded in paraffin, and serially sectioned at 5 μm intervals. The sections are mounted on glass slides and stained with Mayers hematoxylin and eosin. Follicles are counted using the dissector and fractionator principles (see Mayhew et al. (1991) Exp Physiol 76:639-65). Every fifth section of each ovary is used for analysis. Follicle stages are determined based on the classification used by Flaws et al. (1997) Biol. Reprod. 57:1233-1237. Follicles are assessed blindly and confirmed by two investigators. Data is expressed as percentage of follicle per ovary.
Follicles are identified as healthy if they contained an intact oocyte, organized granulosa and thecal cell layers, and no pyknotic bodies. Follicles are considered atretic if they contain a degenerating oocyte, disorganized granulosa cells with pyknotic nuclei or apoptotic bodies. Follicles will be scored as “primordial” if they contain an intact oocyte with a visible nucleolus surrounded by a single layer of fusiform-shaped granulosa cells. Follicles are scored as “primary” if they consist of an intact, enlarged oocyte with a visible nucleolus and a single layer of cuboidal granulosa cells. Follicles are scored as preantral if they contain an oocyte with a visible nucleolus and more than one layer of granulosa or thecal cells. To obtain an estimate of the total number of follicles per ovary, the number of primordial, primary, and preantral follicles are multiplied by 5 to account for the fact that every fifth section was used for analyses. Statistical analysis of follicle number is performed using Sigmastat statistical software v.2 (Jandel Corporation, San Rafael, Calif., USA).
Transient incubation of neonatal ovaries in vitro with bpV(pic) may avoid the adverse side effects of the PTEN inhibitor in vivo to allow a tissue-specific action of the inhibitor. After treatment using the PTEN inhibitor, ovaries are transplanted into adult hosts. To facilitate follicle growth, adult recipients are ovariectomized to increase endogenous gonadotropin levels. […]

[3] = tested on: human primordial follicles; experiment: Human follicle activation: cortical cubes treated in vitro, xeno-transplanted into kidney capsule of ovariectomized SCID mice, follicle counting; assay type: in vivo
Procedure: as §1

PTP = conditions: read-out: IC50 as PTP inhibitor; cited from earlier work
[4] = antral follicles of four grafts, after hCG

Sequence of PTEN (P60484 whole entry): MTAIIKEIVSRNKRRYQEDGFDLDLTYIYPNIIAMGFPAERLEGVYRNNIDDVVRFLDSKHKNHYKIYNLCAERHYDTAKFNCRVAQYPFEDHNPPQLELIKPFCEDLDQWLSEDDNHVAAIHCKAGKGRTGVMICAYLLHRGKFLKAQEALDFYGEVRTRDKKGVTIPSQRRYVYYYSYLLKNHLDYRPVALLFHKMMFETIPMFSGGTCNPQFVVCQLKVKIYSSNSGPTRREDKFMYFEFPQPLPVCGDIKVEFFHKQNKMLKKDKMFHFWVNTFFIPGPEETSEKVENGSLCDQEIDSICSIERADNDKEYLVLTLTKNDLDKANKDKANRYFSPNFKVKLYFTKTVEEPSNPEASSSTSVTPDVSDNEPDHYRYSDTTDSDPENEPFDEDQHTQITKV

effect on follicle development and nuclear maturation of the preovulatory oocyte ([2]; 6 h in vitro exposure, 15 days after transplantation, hCG 8 h): did not cause detrimental effects | malignancy in xenografted human ovaries or hosts ([3]; six months of transplantation, short term exposure): No malignancy was found
Compound: O.O.O=C([O-])c1ccccn1.OO.OO.[K+].[K+].[OH-].[V] [bpV(pic), dipotassium bisperoxo(picolinato)oxovanadate (V)]
pIC50 (PTEN): 7.51 | increase in nuclear exclusion of Foxo3 versus controls [1]: 2 fold | ovarian size as compared with control ovaries ([2]; 100 μM for 24 h in vitro, twelve days after transplantation): clear increases in sizes | decrease of the percentage of primordial (Pmd) follicles as compared to controls ([2]; 250 uM for 6 h in vitro, day 3 Balb/c ovaries, transplanted, FSH 12 days, preliminary analysis, three pairs of ovaries): 60% | follicles that left the dormant primordial pool and developed into larger follicles ([3]; 24 h treatment (100 mM), after transplantation, FSH 24 weeks): 89% | graft size as compared with controls ([3]; 24 h treatment, 6 months after xeno-transplantation): major increases in graft sizes | increases in the number of secondary and antral follicles ([3]; 24 h treatment, after xeno-transplantation): ~4 fold | number of oocytes at GV stage [3, 4]: 5 | number of oocytes at MI stage [3, 4]: 15 | number of oocytes at MII stage [3, 4]: 12 | number of antral follicles (>1 mm diameter) ([3]; in four ovarian grafts): 32 | increase in the number of antral follicles ([3]; versus paired control grafts): 4 fold | increase in the number of mature (MI & MII) oocytes ([3]; versus paired control grafts): 27 fold

Compound: OO.OO.[K+].[OH-].[V].c1cnc2c(c1)ccc1cccnc12 [potassium bisperoxo (1,10-phenanthroline)oxovanadate (V)]
pIC50 (PTEN): 7.42

Compound: dipotassium bisperoxo(5-hydroxypyridine-2-carboxyl)oxovanadate (V)
pIC50 (PTEN): 7.85

Compound: monoperoxo(picolinato)oxovanadate(V)
pIC50 (PTP): 4.74

Compound: potassium bisperoxo(bipyridine)oxovanadate (V)
pIC50 (PTEN): 7.74
